This is an account of results in ChEMBL document CHEMBL1949654, “Discovery of a Potent Pyrazolopyridine Series of γ-Secretase Modulators” (ACS Med Chem Lett, 2011).

In assay [1] the test system is Rattus norvegicus. The assay is described as follows: Antialzheimer activity in CD rat assessed as reduction in amyloid beta total CSF level at 30 mg/kg, po measured after 3 hrs. The assay is classed as functional, organism-based. Also noted: dose 30 mg/kg.
The nature of assay [2]: Selectivity ratio of IC50 for gamma secretase-mediated amyloid beta total production to IC50 for gamma secretase-mediated amyloid beta (1 to 42) production.
The species named for a further assay is Mus musculus. The assay is described as follows: Inhibition of mouse gamma-secretase assessed as reduction in reduction in Hes-1 expression up to 20 uM.
The species entered for a further assay is Canis lupus familiaris. The assay is described as follows: Inhibition of dog gamma-secretase assessed as reduction in reduction in Hes-1 expression up to 20 uM.
In assay [3] the test system is Rattus norvegicus. The assay is described as follows: Antialzheimer activity in CD rat assessed as reduction in amyloid beta (1 to 40) CSF level at 30 mg/kg, po measured after 3 hrs. Type of assay: functional, organism-based. Also noted: dose 30 mg/kg.
The test system of another assay is HEK293. The assay is described as follows: Inhibition of gamma-secretase expressed in HEK293 cells assessed as reduction in Notch cleavage up to 20 uM. The assay is classed as cell-based.
Assay [4] is described as follows: Inhibition of gamma secretase-mediated amyloid beta (1 to 42) production expressed in HEK293 cells overexpressing APP Swedish mutant after 5 hrs by immunoassay. The assay is classed as cell-based.

Calls of active or inactive are those of the source. The rule behind the calls is not given here.

Usually IC50 stands for the concentration that inhibits the measured activity by half. Lower therefore signals inhibition by little substance. For `COc1cc(-c2nnc3n([C@@H](C)c4cc(F)cc(F)c4)cc(Cl)cc2-3)ccc1-n1cnc(C)c1`, the inhibition result in the assay with Rattus norvegicus [1], in the assay filed under Mus musculus, in the assay filed under Canis lupus familiaris, in the assay with Rattus norvegicus [3] and in the assay with HEK293 was “inactive” in each case. Further, in assay [2], the Ratio IC50 was found to be 6. In assay [4], this molecule displayed an IC50 of 38 nM.
Regarding `C=C(c1ccc(F)cc1)n1cc(Cl)cc2c(-c3ccc(-n4cnc(C)c4)c(OC)c3)nnc1-2`, the inhibition entry in the assay on Rattus norvegicus [1], in the assay listed under Mus musculus, in the assay filed under Canis lupus familiaris, in the assay on Rattus norvegicus [3] and in the assay on HEK293 was “inactive” throughout. Further, in assay [2], the Ratio IC50 came to 42. The molecule also had an IC50 in assay [4] of 481 nM.
As for `COc1cc(-c2nnc3n([C@@H](C)c4ccc(F)cc4)cc(CO)cc2-3)ccc1-n1cnc(C)c1`, the inhibition entry in the assay with Rattus norvegicus [1], in the assay listed under Mus musculus, in the assay listed under Canis lupus familiaris, in the assay on Rattus norvegicus [3] and in the assay with HEK293 was “inactive” in each case. For the same molecule, in assay [2], the Ratio IC50 turned out to be 248. In assay [4], this molecule yielded an IC50 of 81 nM.
With `COc1cc(-c2nnc3n(C(C)c4ccc(F)cc4)cccc2-3)ccc1-n1cnc(C)c1` (racemic), the inhibition entry in the assay with Rattus norvegicus [1], in the assay listed under Mus musculus, in the assay filed under Canis lupus familiaris, in the assay with Rattus norvegicus [3] and in the assay on HEK293 was “inactive” throughout. The Ratio IC50 in assay [2] is 87. In assay [4], this molecule had an IC50 of 231 nM.
For the molecule `COc1cc(-c2nnc3n([C@@H](C)c4ccc(F)cc4)cc(CF)cc2-3)ccc1-n1cnc(C)c1`, the inhibition entry in the assay on Rattus norvegicus [1], in the assay filed under Mus musculus, in the assay listed under Canis lupus familiaris, in the assay with Rattus norvegicus [3] and in the assay with HEK293 was “inactive” each time. In addition, the Ratio IC50 in assay [2] came to 32. Moreover, 634 nM corresponded to half-maximal inhibition in assay [4] (IC50).
Regarding `COc1ccc(COCc2cc3c(-c4ccc(-n5cnc(C)c5)c(OC)c4)nnc-3n([C@@H](C)c3ccc(F)cc3)c2)cc1`, the inhibition result with Rattus norvegicus [1], in the assay filed under Mus musculus, in the assay filed under Canis lupus familiaris, with Rattus norvegicus [3] and in the assay on HEK293 was “inactive” each time. Moreover, the Ratio IC50 in assay [2] worked out at 110. Besides, it took 182 nM to reach half-maximal inhibition in assay [4] (IC50).
Turning to `COc1cc(-c2nnc3n([C@@H](C)c4ccc(F)cc4)cc(C#N)cc2-3)ccc1-n1cnc(C)c1`, the inhibition entry in the assay on Rattus norvegicus [1], in the assay listed under Mus musculus, in the assay listed under Canis lupus familiaris, in the assay with Rattus norvegicus [3] and in the assay with HEK293 was “inactive” in each case. Moreover, in assay [2], the Ratio IC50 stood at 60. The IC50 in assay [4] was 172 nM.
For the molecule `COc1cc(-c2nnc3n([C@H](C)c4ccc(F)cc4)cccc2-3)ccc1-n1cnc(C)c1`, the inhibition entry in the assay on Rattus norvegicus [1], in the assay listed under Mus musculus, in the assay filed under Canis lupus familiaris, in the assay on Rattus norvegicus [3] and in the assay on HEK293 was “inactive” in each case. Further, the Ratio IC50 in assay [2] is 60. The molecule further returned an IC50 in assay [4] of 332 nM.
Consider `COc1cc(-c2nnc3n(C(CCS(C)(=O)=O)c4ccc(F)cc4)cc(Cl)cc2-3)ccc1-n1cnc(C)c1` (stereo not given), for which the inhibition entry in the assay with Rattus norvegicus [1], in the assay listed under Mus musculus, in the assay filed under Canis lupus familiaris, in the assay on Rattus norvegicus [3] and in the assay on HEK293 was “inactive” throughout. Further, the Ratio IC50 in assay [2] worked out at 63. In assay [4], this molecule came in with an IC50 of 316 nM.
Consider `COc1ccc(Cn2cccc3c(-c4ccc(-n5cnc(C)c5)c(OC)c4)nnc2-3)cc1`, for which the inhibition result in the assay with Rattus norvegicus [1], in the assay filed under Mus musculus, in the assay listed under Canis lupus familiaris, in the assay on Rattus norvegicus [3] and in the assay on HEK293 was “inactive” throughout. Further, the Ratio IC50 in assay [2] was 119. The same molecule had an IC50 in assay [4] of 168 nM.
